Assay results as given in US20230407243A1, “GENETIC PLATFORM TO INVESTIGATE THE FUNCTIONS OF BACTERIAL DRUG EFFLUX PUMPS” (priority 2022, published 2023).
Read-outs that look alike come from different tables or passages of the source.

Columns and labels:
Assay type in all cases: cell-based, Escherichia coli
[1] = test system: EKO-35 araC::emrAB Pore; assay: MIC susceptibility profiling, porinated efflux platform; details: for Fold changes of MICs: EKO-35 araC::emrAB Pore compared to EKO-35-Pore
Summary of the method: (§1)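 MIC values come from background-corrected OD600 readings (pre-incubation OD subtracted) after 18 h at 37 °C and 900 rpm in MHB II. Compounds were tested in duplicate as 2-fold dilutions. The inoculum came from 18 h LB cultures adjusted to OD600 ~1.0 and diluted 1/2000, and the pore-bearing strains were vancomycin-checked beforehand.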

[2] = test system: EKO-35 araC::acrBD408A Pore; assay: as above; details: for Fold changes of MICs: EKO-35 araC::acrBD408A Pore compared to EKO-35-Pore; for MIC: Escherichia coli, read-out: Minimum inhibitory concentration
Summary of the method: as §1

[3] = test system: EKO-35 araC::acrD Pore; assay: as above; details: for Fold changes of MICs: EKO-35 araC::acrD Pore compared to EKO-35-Pore
Summary of the method: as §1

[4] = test system: EKO-35 araC::acrEF Pore; assay: as above; details: for Fold changes of MICs: EKO-35 araC::acrEF Pore compared to EKO-35-Pore
Summary of the method: as §1

[5] = test system: EKO-35 araC::acrB Pore; assay: as above; details: for Fold changes of MICs: EKO-35 araC::acr-B Pore compared to EKO-35-Pore
Summary of the method: as §1

[6] = test system: EKO-35-Pore; assay: MIC susceptibility profiling, porinated strain; details: for Fold changes of MICs: EKO-35-Pore compared to EKO-35-Pore (reference); for MIC: Escherichia coli
Summary of the method: as §1

[7] = test system: EKO-35 araC::emrKY; assay: MIC susceptibility profiling, efflux platform; details: for Fold change of MICs: EKO-35 araC::emrKY compared to EKO-35; for MIC: Escherichia coli, read-out: Minimum Inhibitory Concentration, EKO-35 araC::emrKY
Summary of the method: (§2)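 Overnight LB cultures resuspended in PBS to OD600 ~1.0, diluted 1/2000 into MHB II, and added to 2-fold serial compound dilutions in duplicate with DMSO controls. Incubated 18 h at 37° C. with 900 rpm shaking; OD600 read before and after, background subtracted, to derive MIC.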

[8] = test system: EKO-35 araC::mexCD (MexCD from P. aeruginosa); assay: MIC susceptibility profiling, efflux platform; details: for Fold change of MICs: EKO-35 araC::mexCD compared to EKO-35; for MIC: read-out: Minimum Inhibitory Concentration, EKO-35 araC::mexCD
Summary of the method: as §2

[9] = test system: EKO-35 araC::mdtEF; assay: MIC susceptibility profiling, efflux platform; details: for Fold change of MICs: EKO-35 araC::mdtEF compared to EKO-35; for MIC: Escherichia coli, read-out: Minimum Inhibitory Concentration, EKO-35 araC::mdtEF
Summary of the method: as §2

[10] = test system: EKO-35 araC::mdtBC; assay: MIC susceptibility profiling, efflux platform; details: for Fold change of MICs: EKO-35 araC::mdtBC compared to EKO-35; for MIC: Escherichia coli, read-out: Minimum Inhibitory Concentration, EKO-35 araC::mdtBC
Summary of the method: as §2

[11] = test system: EKO-35 araC::acrB; assay: MIC susceptibility profiling, efflux platform; details: for Fold change of MICs: EKO-35 araC::acrB compared to EKO-35; for MIC: Escherichia coli, read-out: Minimum Inhibitory Concentration, EKO-35 araC::acrB
Summary of the method: as §2

[12] = test system: EKO-35 araC::emrAB; assay: MIC susceptibility profiling, efflux platform; details: for Fold change of MICs: EKO-35 araC::emrAB compared to EKO-35; for MIC: Escherichia coli, read-out: Minimum Inhibitory Concentration, EKO-35 araC::emrAB
Summary of the method: as §2

[13] = test system: EKO-35 araC::macAB; assay: MIC susceptibility profiling, efflux platform; details: for Fold change of MICs: EKO-35 araC::macAB compared to EKO-35; for MIC: Escherichia coli, read-out: Minimum Inhibitory Concentration, EKO-35 araC::macAB
Summary of the method: as §2

[14] = test system: EKO-35 araC::acrEF; assay: MIC susceptibility profiling, efflux platform; details: for Fold change of MICs: EKO-35 araC::acrEF compared to EKO-35; for MIC: Escherichia coli, read-out: Minimum Inhibitory Concentration, EKO-35 araC::acrEF
Summary of the method: as §2

[15] = test system: EKO-35 araC::acrBD408A; assay: MIC susceptibility profiling, efflux platform; details: for Fold change of MICs: EKO-35 araC::acrBD408A compared to EKO-35; for MIC: Escherichia coli, read-out: Minimum Inhibitory Concentration, EKO-35 araC::acrBD408A
Summary of the method: as §2

[16] = test system: EKO-35 araC::acrD; assay: MIC susceptibility profiling, efflux platform; details: for Fold change of MICs: EKO-35 araC::acrD compared to EKO-35; for MIC: Escherichia coli, read-out: Minimum Inhibitory Concentration, EKO-35 araC::acrD
Summary of the method: as §2

[17] = test system: wild-type (WT) K-12-Pore; assay: microbe, parasite or virus in culture; details: technical duplicate; for MIC: Escherichia coli
Summary of the method: as §1

[18] = test system: ΔtolC-Pore; assay: microbe, parasite or virus in culture; details: for MIC: Escherichia coli, 18 h, read-out: Minimum inhibitory concentration, ΔtolC-Pore; for Minimum inhibitory concentration (MIC), Pore ΔtolC: Table 10, with pore
Summary of the method: as §1

[19] = EKO-35 araC::acrBD408A Pore, technical duplicate
[20] = Table 10, with pore, technical duplicate, read-out: Minimum inhibitory concentration (MIC), Pore EKO-35
[21] = Table 14A, porinated, technical duplicate, read-out: Minimum inhibitory concentration, EKO-35-Pore
[22] = Table 13B, non-porinated, technical duplicate
[23] = Table 13A, non-porinated, technical duplicate
[24] = Table 10, with pore, read-out: Minimum inhibitory concentration (MIC), Pore K-12
[25] = Table 14A, porinated, read-out: Minimum inhibitory concentration, K-12 (WT)-Pore
[26] = Table 14A, porinated, technical duplicate

COc1cccc2c1C(=O)c1c(O)c3c(c(O)c1C2=O)C[C@@](O)(C(=O)CO)C[C@@H]3O[C@H]1C[C@H](N)[C@H](O)[C@H](C)O1 [doxorubicin]
Fold changes of MICs [1]: 1 fold
MIC ([1]; Escherichia coli, EKO-35 araC::emrAB Pore, technical duplicate, read-out: Minimum inhibitory concentration): 0.781 µg/mL
Fold changes of MICs [2]: 1 fold
MIC [2, 19]: 0.781 µg/mL
Fold changes of MICs [3]: 1 fold
MIC ([3]; Escherichia coli, Table 14A, porinated, technical duplicate, read-out: Minimum inhibitory concentration, EKO-35 araC::acrD Pore): 0.781 µg/mL
Fold changes of MICs [4]: 16 fold
MIC ([4]; Escherichia coli, Table 14A, porinated, technical duplicate, read-out: Minimum inhibitory concentration, EKO-35 araC::acrEF Pore): 12.5 µg/mL
Fold changes of MICs [5]: 64 fold
Fold changes of MICs [6]: 1 fold
MIC [6, 20]: 0.781 µg/mL
MIC [6, 21]: 0.781 µg/mL
Fold change of MICs [7]: 1 fold
MIC [7, 22]: 1.56 µg/mL
Fold change of MICs [8]: 16 fold
MIC [8, 22]: 25 µg/mL
Fold change of MICs [9]: 64 fold
MIC [9, 23]: 100 µg/mL
Fold change of MICs [10]: 1 fold
MIC [10, 22]: 1.56 µg/mL
Fold change of MICs [11]: 128 fold
MIC [11, 23]: 200 µg/mL
Fold change of MICs [12]: 1 fold
MIC [12, 22]: 1.56 µg/mL
Fold change of MICs [13]: 1 fold
MIC [13, 22]: 1.56 µg/mL
Fold change of MICs [14]: 64 fold
MIC [14, 23]: 100 µg/mL
Fold change of MICs [15]: 1 fold
MIC [15, 22]: 1.56 µg/mL
Fold change of MICs [16]: 2 fold
MIC [16, 23]: 3.12 µg/mL
MIC [17, 24]: 50 µg/mL
MIC [17, 25]: 50 µg/mL
MIC [18]: 0.781 µg/mL
Minimum inhibitory concentration (MIC), Pore ΔtolC ([18]; technical duplicate): 0.781 µg/mL

CN[C@H](CC(C)C)C(=O)N[C@H]1C(=O)N[C@@H](CC(N)=O)C(=O)N[C@H]2C(=O)N[C@H]3C(=O)N[C@H](C(=O)N[C@H](C(=O)O)c4cc(O)cc(O)c4-c4cc3ccc4O)[C@H](O)c3ccc(c(Cl)c3)Oc3cc2cc(c3O[C@@H]2O[C@H](CO)[C@@H](O)[C@H](O)[C@H]2O[C@H]2C[C@](C)(N)[C@H](O)[C@H](C)O2)Oc2ccc(cc2Cl)[C@H]1O [vancomycin]
Fold changes of MICs [1]: 1 fold
Fold changes of MICs [2]: 1 fold
MIC [2, 19]: 6.25 µg/mL
Fold changes of MICs [3]: 1 fold
Fold changes of MICs [4]: 1 fold
Fold changes of MICs [5]: 1 fold
Fold changes of MICs [6]: 1 fold
MIC [6, 20]: 6.25 µg/mL
MIC [6, 21]: 6.25 µg/mL
Fold change of MICs [7]: 1 fold
MIC [7, 22]: 200 µg/mL
Fold change of MICs [8]: 1 fold
MIC [8, 22]: 200 µg/mL
Fold change of MICs [9]: 1 fold
MIC [9, 23]: 200 µg/mL
Fold change of MICs [10]: 1 fold
MIC [10, 22]: 200 µg/mL
Fold change of MICs [11]: 1 fold
MIC [11, 23]: 200 µg/mL
Fold change of MICs [12]: 1 fold
MIC [12, 22]: 200 µg/mL
Fold change of MICs [13]: 1 fold
MIC [13, 22]: 200 µg/mL
Fold change of MICs [14]: 1 fold
MIC [14, 23]: 200 µg/mL
Fold change of MICs [15]: 1 fold
MIC [15, 22]: 200 µg/mL
Fold change of MICs [16]: 1 fold
MIC [16, 23]: 200 µg/mL
MIC [17, 24]: 3.12 µg/mL
MIC [17, 25]: 3.12 µg/mL
MIC [18]: 6.25 µg/mL
Minimum inhibitory concentration (MIC), Pore ΔtolC ([18]; technical duplicate): 6.25 µg/mL

C[n+]1c2cc(N)ccc2cc2ccc(N)cc21.[Cl-] [acriflavine]
Fold changes of MICs [1]: 2 fold
Minimum inhibitory concentration ([1]; EKO-35 araC::emrAB Pore, technical duplicate): 0.195 µg/mL
Fold changes of MICs [2]: 1 fold
Minimum inhibitory concentration [2, 19]: 0.098 µg/mL
Fold changes of MICs [3]: 2 fold
Minimum inhibitory concentration, EKO-35 araC::acrD Pore [3, 26]: 0.195 µg/mL
Fold changes of MICs [4]: 8 fold
Minimum inhibitory concentration, EKO-35 araC::acrEF Pore [4, 26]: 0.781 µg/mL
Fold changes of MICs [5]: 16 fold
Minimum inhibitory concentration, EKO-35 araC::acrB Pore [5, 26]: 1.563 µg/mL
Fold changes of MICs [6]: 1 fold
Minimum inhibitory concentration (MIC), Pore EKO-35 ([6]; Table 10, with pore, technical duplicate): 0.098 µg/mL
Minimum inhibitory concentration, EKO-35-Pore [6, 26]: 0.098 µg/mL
Fold change of MICs [7]: 1 fold
Minimum Inhibitory Concentration, EKO-35 araC::emrKY [7, 22]: 0.098 µg/mL
Fold change of MICs [8]: 8 fold
Minimum Inhibitory Concentration, EKO-35 araC::mexCD [8, 22]: 0.781 µg/mL
Fold change of MICs [9]: 2 fold
Minimum Inhibitory Concentration, EKO-35 araC::mdtEF [9, 23]: 0.195 µg/mL
Fold change of MICs [10]: 1 fold
Minimum Inhibitory Concentration, EKO-35 araC::mdtBC [10, 22]: 0.098 µg/mL
Fold change of MICs [11]: 32 fold
Minimum Inhibitory Concentration, EKO-35 araC::acrB [11, 23]: 3.125 µg/mL
restoration of resistance to wild-type levels by acrB alone ([11]; overexpression of acrB in EKO-35): did not restore resistance to wild-type levels
Fold change of MICs [12]: 1 fold
Minimum Inhibitory Concentration, EKO-35 araC::emrAB [12, 22]: 0.098 µg/mL
Fold change of MICs [13]: 1 fold
Minimum Inhibitory Concentration, EKO-35 araC::macAB [13, 22]: 0.098 µg/mL
Fold change of MICs [14]: 8 fold
Minimum Inhibitory Concentration, EKO-35 araC::acrEF [14, 23]: 0.781 µg/mL
Fold change of MICs [15]: 1 fold
Minimum Inhibitory Concentration, EKO-35 araC::acrBD408A [15, 22]: 0.098 µg/mL
Fold change of MICs [16]: 2 fold
Minimum Inhibitory Concentration, EKO-35 araC::acrD [16, 23]: 0.195 µg/mL
Minimum inhibitory concentration (MIC), Pore K-12 ([17]; Table 10, with pore): 50 µg/mL
Minimum inhibitory concentration, K-12 (WT)-Pore ([17]; Table 14A, porinated): 50 µg/mL
Minimum inhibitory concentration (MIC), Pore ΔtolC ([18]; technical duplicate): 3.125 µg/mL
Minimum inhibitory concentration, ΔtolC-Pore [18, 26]: 3.125 µg/mL
